ChEMBL document CHEMBL4665629, “An optimised series of substituted N-phenylpyrrolamides as DNA gyrase B inhibitors” (Eur J Med Chem, 2019)
Converted amounts (≈) assume the structure as drawn.

Legend:
[1] = tested on: Pseudomonas aeruginosa; assay: Antibacterial activity against Pseudomonas aeruginosa ATCC 27853 assessed as bacterial growth inhibition at 50 uM incubated for 24 hrs by CLSI protocol based broth microdilution assay relative to control; type: functional
[2] = tested on: Escherichia coli; assay: Antibacterial activity against Escherichia coli ATCC 25922 assessed as minimum inhibitory concentration required for >=90% inhibition of bacterial growth in presence of phenylalanine-arginine beta-naphthylamide by CLSI protocol based broth microdilution assay; type: functional
[3] = tested on: Staphylococcus aureus; assay: Antibacterial activity against methicillin-resistant Staphylococcus aureus ATCC 43300 assessed as minimum inhibitory concentration required for >=90% inhibition of bacterial growth by CLSI protocol based broth microdilution assay; type: functional
[4] = tested on: Acinetobacter baumannii; assay: Antibacterial activity against Acinetobacter baumannii ATCC 19606 assessed as bacterial growth inhibition at 50 uM incubated for 24 hrs by CLSI protocol based broth microdilution assay relative to control; type: functional; details: ATCC 19606 = CIP 70.34 = JCM 6841
[5] = Inhibition of Escherichia coli DNA topoisomerase 4 assessed as residual activity at 1 uM using biotinylated oligonucleotide as substrate incubated for 30 mins in presence of ATP by fluorescence-based microplate reader assay relative to control
[6] = tested on: Klebsiella pneumoniae; assay: Antibacterial activity against wild type Klebsiella pneumoniae ATCC 10031 harboring GyrA S83L mutant assessed as minimum inhibitory concentration required for >=90% inhibition of bacterial growth in presence of 10 ug/ml phenylalanine-arginine beta-naphthamide; type: functional
[7] = tested on: Staphylococcus aureus; assay: Antibacterial activity against Staphylococcus aureus ATCC 29213 assessed as bacterial growth inhibition at 50 uM incubated for 24 hrs by CLSI protocol based broth microdilution assay relative to control; type: functional
[8] = tested on: Escherichia coli; assay: Antibacterial activity against Escherichia coli MG1655 harboring […]/D87N and ParC S80I mutants assessed as minimum inhibitory concentration required for >=90% inhibition of bacterial growth in presence of 50 ug/ml phenylalanine-arginine beta-naphthylamide; type: functional
[9] = tested on: Salmonella enterica; assay: Antibacterial activity against Salmonella enterica LT2 assessed as minimum inhibitory concentration required for >=90% inhibition of bacterial growth in presence of phenylalanine-arginine beta-naphthylamide by CLSI protocol based broth microdilution assay; type: functional
[10] = target: Topoisomerase IV (Staphylococcus aureus) (UniProt P0C1U9+P0C1S7); assay: Inhibition of Staphylococcus aureus DNA topoisomerase 4 assessed as residual activity at 1 uM using biotinylated oligonucleotide as substrate incubated for 30 mins in presence of ATP by fluorescence-based microplate reader assay relative to control; type: protein-complex assay
[11] = tested on: Escherichia coli; assay: Antibacterial activity against Escherichia coli MG1655 assessed as minimum inhibitory concentration required for >=90% inhibition of bacterial growth in presence of phenylalanine-arginine beta-naphthylamide by CLSI protocol based broth microdilution assay; type: functional
[12] = tested on: Enterococcus faecium; assay: Antibacterial activity against Enterococcus faecium ATCC 35667 assessed as minimum inhibitory concentration required for >=90% inhibition of bacterial growth by CLSI protocol based broth microdilution assay; type: functional
[13] = tested on: Escherichia coli; assay: Antibacterial activity against Escherichia coli ATCC 25922 assessed as minimum inhibitory concentration required for >=90% inhibition of bacterial growth by CLSI protocol based broth microdilution assay; type: functional
[14] = tested on: Klebsiella aerogenes; assay: Antibacterial activity against Enterobacter aerogenes ATCC 13408 assessed as bacterial growth inhibition at 50 uM incubated for 24 hrs by CLSI protocol based broth microdilution assay relative to control; type: functional

Compound CCn1cc(C(=O)O)c(=O)c2ccc(NC(=O)c3[nH]c(C)c(Cl)c3Cl)cc21 has an inhibition at 50 µM [1] of -5%, an MIC [2] of 2.3 µM and an MIC [3] of 2.5 µM (≈ 1.02 µg/mL). It also gave an inhibition at 50 µM [4] of 2%, an Activity [5] of 92% and an MIC [6] of 1.2 µM. It also gave an inhibition at 50 µM [7] of 100%, an MIC [8] of 2.5 µM and an MIC [9] greater than 32 µM. The Activity [10] was 100%, the MIC [11] was 2.5 µM and the MIC [12] was 1.56 µM (≈ 0.637 µg/mL). For the same compound, the MIC [13] was greater than 32 µM and the inhibition at 50 µM [14] was 9%.
